Test results published in patent publication US8809554B2, “Process for the preparation of sulfamide derivatives” (Janssen Pharmaceutica NV, priority 2011, dated 2014).
Values joined by “and” are separate entries in the source; they are usually repeats but may differ in a detail not shown here. Identical values can stand only once.

Test: Solubility of the compound of formula (I-S) in toluene as a function of OPPh3 concentration
Type: physicochemical
Settings: 21° C.

- Solubility (g/100 g toluene) (OPPH3 0.05 mol/L): 1.6 g/100 g toluene
- Solubility (g/100 g toluene) (OPPH3 0.10 mol/L): 2.3 g/100 g toluene
- Solubility (g/100 g toluene) (OPPH3 0.15 mol/L): 4.2 g/100 g toluene
- Solubility (g/100 g toluene) (OPPH3 0.25 mol/L): 6.0 g/100 g toluene
- Solubility (g/100 g toluene) (OPPH3 0.30 mol/L): 8.2 g/100 g toluene
- Solubility (g/100 g toluene) (OPPH3 0.40 mol/L): 9.6 g/100 g toluene
Structure (SMILES): NS(=O)(=O)NC[C@H]1COc2cc(Cl)ccc2O1 [compound of formula (I-S), N-[[(2S)-6-chloro-2,3-dihydro-1,4-benzodioxin-2-yl]methyl]-sulfamide]
- Solubility (g/100 g toluene) (OPPH3 0.20 mol/L): 5.9 g/100 g toluene and 5.0 g/100 g toluene
- Solubility, trend with OPPh3 concentration (OPPh3 0.05-0.40 mol/L): increases with increased OPPh3 concentration
